The values below come from patent publication US7902226B2, “Dehalogeno-compounds” (Daiichi Pharmaceutical Co., Ltd., priority 2000, dated 2011).

Molecules are shown by their SMILES. Values after ≈ are worked out from the molar mass of the structure shown. Where two headings read alike, the source gives them in different places.

The MIC is the lowest concentration found to suppress growth. As a reminder, the Cmax is the peak of the concentration-time curve.

Data set [1] has as its system K. pneumoniae, Type 1. The data set can be described thus: Antibacterial activity (MIC), standard method of the Japan Society of Chemotherapy. It is filed as cell-based. Particulars: Klebsiella pneumoniae, TYPE1. As to the method:
(§1) Antibacterial activities of the compounds of this invention were measured in accordance to the standard method designated by the Japan Society of Chemotherapy, with the results shown as MIC values (microgram/ml) units in the following table. For comparison with the MIC values of the compounds of this invention, MIC values of levofloxacin (LVFX), ciprofloxacin (CPFX) and 7-[3-(R)-(1-aminocyclopropyl)pyrrolidin-1-yl]-6-fluoro-1-[2-(S)-fluoro-1-(R)-cyclopropyl]-8-methyl-1,4-dihydro-4-oxoquinoline-3-carboxylic acid (Reference drug 1), which is described in PCT/JP96/00208, are also shown in the table.

Data set [2] concerns Ps. maltophilia, IID-1275. The data set is described as above. Type of data set: cell-based. Particulars: Stenotrophomonas maltophilia, IID1275. The method, then:
as §1

Data set [3] relates to S. aureus, 209P. Described as above. Type of data set: cell-based. The settings on record: Staphylococcus aureus. As to the method: as §1
Data set [4] concerns S. aureus, 870307. Described as above. It is filed as cell-based. The settings on record: Staphylococcus aureus. The method, then:
as §1

In data set [5] the test system is Ser. marcescens, 10100. The description is as above. Type of data set: cell-based. Particulars: Serratia marcescens. The method, then: as §1
Data set [6] concerns bone marrow of mice. Nature of the data set: Micronucleus test in bone marrow of mice. Particulars: Slc:ddY male mice, 24 hours after administration. Type of data set: in vivo. As to the method: For the compound described as Example 1 of this invention, the micronucleus test in bone marrow of mice was performed by the following method.
Mice groups, each consisting of five, six-week-old, Slc:ddY male mice, were used. The compound of this invention described as Example 1 and 7-[3-(R)-(1-aminocyclopropyl)pyrrolidin-1-yl]-6-fluoro-1-[2-(S)-fluoro-1-(R)-cyclopropyl]-8-methyl-1,4-dihydro-4-oxoquinoline-3-carboxylic acid (Reference drug 1) described in PCT/JP96/00208 were dissolved in and diluted with 0.1 mol/l NaOH/saline solution. The 0.1 mol/l NaOH/saline solvent was used as a control, and as a positive Reference drug, a drug solution, prepared by dissolving and diluting cyclophosphamide (CP) in saline solution, was used. All drug solutions were disinfected by filtration through Mylex GS 0.22 μm filters. With each drug solution, a single intravenous dose of 10 ml/kg was administered at an administration rate of 0.2 ml/min. 24 hours after administration, […] were collected from the femur bone, the smear preparations were prepared, and these were dyed with […].

Data set [7] in a line: Blood concentration and organ concentration after oral administration (absorption test groups). The settings on record: fasting rats, 20 mg/kg; for Kp / Cmax / AUC(0-t) / half-life: male, Crj: CD IGS, rat; for Cmax / AUC(0-t) / half-life: serum; for AUC(0-t): read-out: Serum AUC0-4h; for half-life: read-out: Serum t1/2 (converted). It is filed as in vivo. The method, then:
For the compound of this invention described as Example 1, the blood concentration and organ concentration after oral administration were determined by the following methods. Measurements were also made by the same methods for Reference drug 1.
An administration solution was prepared by dissolving a tested compound to a concentration of 2 mg/ml (as free compound) in distilled water, and using a 2.5 ml disposable syringe or a metal oral probe, the solution was orally administered at a dose of 20 mg/kg to fasting rats (Crj: CD IGS; male; 7-week-old; Charles River Japan, Inc.).
The absorption test groups (4 rats per group; total of 6 groups) were killed by exsanguination while under ether anesthetization 0.25, 0.5, 1, 2, 4, or 6 hours after drug administration, and the blood, liver, kidneys, and lungs were sampled. With the blood, serum was sampled by centrifugation (3000 rpm×15 minutes, 4° C.) after coagulation. Tissues were homogenized after adding 3 to 5 ml of 0.1M phosphate buffer solution (pH 7.0) and the centrifugation supernatants (3000 rmpm×15 minutes, 4° C.) were collected.
Determination of drug concentrations in liquid samples were quantified by an agar well method bioassay using the B. subtilis ATCC6051 strain as the test organism. A test medium was prepared by inoculating a suspension containing 5×10^7 CFU/ml of spores of the test bacteria at a proportion of 1% into an nutrient agar (Eiken Kagaku) that was sterilized at 121° C. for 15 minutes and then cooled to approximately 50° C. After placing 10 ml each of this medium in a sterilized Petri dish and solidifying horizontally, four holes of 8 mm diameter were made to prepare a test plate medium. The Bioassay System TDA-1 (Dainippon Seiki) was used for preparation of the test plate media. For the measurements, the test samples (diluted with serum or phosphate buffer solution as necessary), serial dilutions of the drug solutions for calibration (two-fold serial dilutions prepared so that the inhibition ring diameter will be approximately 10 to 30 mm), and a reference drug solution (a drug solution of given concentration for correction of the error among plates; normally, a concentration of forming an inhibition ring of approximately […] is used) were prepared, and 50 μL of the test sample (or the drug solution for calibration) were placed in each of two of the four holes of each plate and 50 μL of the reference solution was placed in each of the other two holes. After addition of the sample, the plate medium was set still for 1 hour at 4° C. to perform preliminary dispersion and then culturing at 37° C. was performed for approximately 18 hours, and the inhibition ring diameters were measured using CA-400 (Dainippon Seiki). The concentrations of the test samples were measured using a calibration curve determined by second-order regression from the logarithmic values of the drug concentration of the calibration curve serial dilutions and the inhibition ring diameters.
For the tissue concentration (μg/ml), the concentration (μg/ml) in the homogenate supernatant was determined from the tissue weight (g) and the added phosphate buffer amount (ml) and using the following equation: [Tissue concentration]=[Homogenate concentration]×([Tissue weight]+[Buffer solution amount])/[Tissue weight]
For each drug, the pharmacokinetic parameters in rats were calculated based on mean concentration, by non-compartmental analysis, and using the pharmacodynamics analysis software, PSAG-CP (Asmedica).

Data set [8] is described as follows: Urinary excretion after oral administration (excretion test groups). It is filed as in vivo. Particulars: fasting rats, 20 mg/kg, urine 0-24 h. As to the method: An administration solution was prepared by dissolving a tested compound to a concentration of 2 mg/ml (as free compound) in distilled water, and using a 2.5 ml disposable syringe or a metal oral probe, the solution was orally administered at a dose of 20 mg/kg to fasting rats (Crj: CD IGS; male; 7-week-old; Charles River Japan, Inc.). […]
Determination of drug concentrations in liquid samples were quantified by an agar well method bioassay using the B. subtilis ATCC6051 strain as the test organism. […] After addition of the sample, the plate medium was set still for 1 hour at 4° C. to perform preliminary dispersion and then culturing at 37° C. was performed for approximately 18 hours, and the inhibition ring diameters were measured using CA-400 (Dainippon Seiki). The concentrations of the test samples were measured using a calibration curve determined by second-order regression from the logarithmic values of the drug concentration of the calibration curve serial dilutions and the inhibition ring diameters.
The urinary excretion rate (%) was determined from the amount (μg) of drug administered, amount (ml) of urine (or washing solution), and concentration (μ/ml) in urine (or washing solution): [(Urinary excretion rate]=100×([Amount of urine]×[Concentration in urine])/[Amount of drug administered] Method 3: Calculation of Pharmacokinetic Parameters

[9] abbreviates: kidney/serum, kidney, read-out: AUC0-4h tissue/serum ratio Kidney.
The mark [10] stands for this setting: liver/serum, liver, read-out: AUC0-4h tissue/serum ratio Liver.
Setting [11] is: lung/serum, lung, read-out: AUC0-4h tissue/serum ratio Lung.

For the compound `Cc1c(N2CC[C@@H](C3(N)CC3)C2)c(F)cc2c(=O)c(C(=O)O)cn([C@@H]3C[C@@H]3F)c12` [Reference drug 1, 7-[3-(R)-(1-aminocyclopropyl)pyrrolidin-1-yl]-6-fluoro-1-[2-(S)-fluoro-1-(R)-cyclopropyl]-8-methyl-1,4-dihydro-4-oxoquinoline-3-carboxylic acid, reference compound], the MIC in data set [1] is 0.006 µg/mL (≈ 0.0149 µM); in data set [2], not above 0.003 µg/mL; in data set [3] it was not above 0.003 µg/mL; in data set [4], 0.012 µg/mL (≈ 0.0297 µM); in data set [5], 0.012 µg/mL (≈ 0.0297 µM). In data set [6] (single intravenous dose, 50 and 100 mg/kg administration groups), the “micronucleus induction in comparison to the control” value is given as “clearly seen”. The “Tissue AUC0-4h Kidney” value in data set [7] (kidney) is given as 7.1. The “Tissue Cmax Kidney” value in data set [7] (kidney) was found to be 5.0 µg/g. The “Tissue AUC0-4h Liver” value in data set [7] (liver) came out at 10.4. Also, in data set [7] (liver), the “Tissue Cmax Liver” value came out at 11.6 µg/g. The “Tissue AUC0-4h Lung” value in data set [7] (lung) amounted to 5.3. In data set [7] (lung), the “Tissue Cmax Lung” value amounted to 3.0 µg/g. Also, the Kp in data set [7] (setting [9]) amounted to 7.1; in data set [7] (setting [10]) it was 10.4; in data set [7] (setting [11]), 5.3. Further, the peak level in data set [7] (Cmax) was 1600 ng/mL. The AUC(0-t) in data set [7] is 2300 ng·h/mL. Also, the half-life in data set [7] is 1 h. Further, the “Urinary recovery ratio (per dose) 0-24 h” value in data set [8] was found to be 1.8%.
Regarding `Cc1c(N2CC[C@@H](C3(N)CC3)C2)ccc2c(=O)c(C(=O)O)cn([C@@H]3C[C@@H]3F)c12` [Example 1, 7-[3-(R)-(1-aminocyclopropyl)pyrrolidin-1-yl]-1-[2-(S)-fluoro-1-(R)-cyclopropyl]-1,4-dihydro-8-methyl-4-oxoquinoline-3-carboxylic acid], the MIC in data set [1] was 0.025 µg/mL (≈ 0.0649 µM); in data set [2], 0.2 µg/mL (≈ 0.519 µM); in data set [3] it was not above 0.003 µg/mL; in data set [4], 0.05 µg/mL (≈ 0.13 µM); in data set [5], 0.025 µg/mL (≈ 0.0649 µM). In addition, the “micronucleus induction, judgment result” value in data set [6] (single intravenous dose, 25, 50, and 100 mg/kg administration groups, versus control) was “negative”. For the same compound, the “Tissue AUC0-4h Kidney” value in data set [7] (kidney) came out at 29.0. Moreover, in data set [7] (kidney), the “Tissue Cmax Kidney” value is 14.2 µg/g. In addition, the “Tissue AUC0-4h Liver” value in data set [7] (liver) is 34.5. The “Tissue Cmax Liver” value in data set [7] (liver) came to 27.4 µg/g. Besides, in data set [7] (lung), the “Tissue AUC0-4h Lung” value was determined as 10.0. For the same compound, the “Tissue Cmax Lung” value in data set [7] (lung) came out at 3.8 µg/g. Moreover, the Kp in data set [7] (setting [9]) turned out to be 29; in data set [7] (setting [10]) it was 34.5; in data set [7] (setting [11]), 10. The compound also displayed a maximum concentration (Cmax) in data set [7] of 1700 ng/mL. Also, the AUC(0-t) in data set [7] is 3100 ng·h/mL. The half-life in data set [7] was 1.2 h. Also, the “Urinary recovery ratio (per dose) 0-24 h” value in data set [8] turned out to be 8.1%.
